# Measured values as given in ChEMBL document CHEMBL1201862, “PubChem BioAssay data set” (2004).
# Calls of active or inactive are those of the source.
# Columns and labels:
# SUMO E1/E2 = SUMO E1/E2 (Homo sapiens, UniProt P63279+Q9UBE0+Q9UBT2); assay: SAR analysis of SUMOylation using HTRF in an in-Vitro dose response assay. [Related pubchem assays (depositor defined):AID2006, AID2011, AID2018, AID2069, AID2658]; format: functional
# [1] = target: T1, Voltage-gated N-type calcium channel alpha-1B subunit/Amyloid beta A4 precursor protein-binding family A member 1 (Homo sapiens, UniProt Q00975+Q02410); assay: disruptors of Mint-PDZ/N-type channel peptide interaction – biochemical, HTRF, set 2, SAR follow-up (AID 434980); format: functional
# T1 sequence (Q00975 whole entry): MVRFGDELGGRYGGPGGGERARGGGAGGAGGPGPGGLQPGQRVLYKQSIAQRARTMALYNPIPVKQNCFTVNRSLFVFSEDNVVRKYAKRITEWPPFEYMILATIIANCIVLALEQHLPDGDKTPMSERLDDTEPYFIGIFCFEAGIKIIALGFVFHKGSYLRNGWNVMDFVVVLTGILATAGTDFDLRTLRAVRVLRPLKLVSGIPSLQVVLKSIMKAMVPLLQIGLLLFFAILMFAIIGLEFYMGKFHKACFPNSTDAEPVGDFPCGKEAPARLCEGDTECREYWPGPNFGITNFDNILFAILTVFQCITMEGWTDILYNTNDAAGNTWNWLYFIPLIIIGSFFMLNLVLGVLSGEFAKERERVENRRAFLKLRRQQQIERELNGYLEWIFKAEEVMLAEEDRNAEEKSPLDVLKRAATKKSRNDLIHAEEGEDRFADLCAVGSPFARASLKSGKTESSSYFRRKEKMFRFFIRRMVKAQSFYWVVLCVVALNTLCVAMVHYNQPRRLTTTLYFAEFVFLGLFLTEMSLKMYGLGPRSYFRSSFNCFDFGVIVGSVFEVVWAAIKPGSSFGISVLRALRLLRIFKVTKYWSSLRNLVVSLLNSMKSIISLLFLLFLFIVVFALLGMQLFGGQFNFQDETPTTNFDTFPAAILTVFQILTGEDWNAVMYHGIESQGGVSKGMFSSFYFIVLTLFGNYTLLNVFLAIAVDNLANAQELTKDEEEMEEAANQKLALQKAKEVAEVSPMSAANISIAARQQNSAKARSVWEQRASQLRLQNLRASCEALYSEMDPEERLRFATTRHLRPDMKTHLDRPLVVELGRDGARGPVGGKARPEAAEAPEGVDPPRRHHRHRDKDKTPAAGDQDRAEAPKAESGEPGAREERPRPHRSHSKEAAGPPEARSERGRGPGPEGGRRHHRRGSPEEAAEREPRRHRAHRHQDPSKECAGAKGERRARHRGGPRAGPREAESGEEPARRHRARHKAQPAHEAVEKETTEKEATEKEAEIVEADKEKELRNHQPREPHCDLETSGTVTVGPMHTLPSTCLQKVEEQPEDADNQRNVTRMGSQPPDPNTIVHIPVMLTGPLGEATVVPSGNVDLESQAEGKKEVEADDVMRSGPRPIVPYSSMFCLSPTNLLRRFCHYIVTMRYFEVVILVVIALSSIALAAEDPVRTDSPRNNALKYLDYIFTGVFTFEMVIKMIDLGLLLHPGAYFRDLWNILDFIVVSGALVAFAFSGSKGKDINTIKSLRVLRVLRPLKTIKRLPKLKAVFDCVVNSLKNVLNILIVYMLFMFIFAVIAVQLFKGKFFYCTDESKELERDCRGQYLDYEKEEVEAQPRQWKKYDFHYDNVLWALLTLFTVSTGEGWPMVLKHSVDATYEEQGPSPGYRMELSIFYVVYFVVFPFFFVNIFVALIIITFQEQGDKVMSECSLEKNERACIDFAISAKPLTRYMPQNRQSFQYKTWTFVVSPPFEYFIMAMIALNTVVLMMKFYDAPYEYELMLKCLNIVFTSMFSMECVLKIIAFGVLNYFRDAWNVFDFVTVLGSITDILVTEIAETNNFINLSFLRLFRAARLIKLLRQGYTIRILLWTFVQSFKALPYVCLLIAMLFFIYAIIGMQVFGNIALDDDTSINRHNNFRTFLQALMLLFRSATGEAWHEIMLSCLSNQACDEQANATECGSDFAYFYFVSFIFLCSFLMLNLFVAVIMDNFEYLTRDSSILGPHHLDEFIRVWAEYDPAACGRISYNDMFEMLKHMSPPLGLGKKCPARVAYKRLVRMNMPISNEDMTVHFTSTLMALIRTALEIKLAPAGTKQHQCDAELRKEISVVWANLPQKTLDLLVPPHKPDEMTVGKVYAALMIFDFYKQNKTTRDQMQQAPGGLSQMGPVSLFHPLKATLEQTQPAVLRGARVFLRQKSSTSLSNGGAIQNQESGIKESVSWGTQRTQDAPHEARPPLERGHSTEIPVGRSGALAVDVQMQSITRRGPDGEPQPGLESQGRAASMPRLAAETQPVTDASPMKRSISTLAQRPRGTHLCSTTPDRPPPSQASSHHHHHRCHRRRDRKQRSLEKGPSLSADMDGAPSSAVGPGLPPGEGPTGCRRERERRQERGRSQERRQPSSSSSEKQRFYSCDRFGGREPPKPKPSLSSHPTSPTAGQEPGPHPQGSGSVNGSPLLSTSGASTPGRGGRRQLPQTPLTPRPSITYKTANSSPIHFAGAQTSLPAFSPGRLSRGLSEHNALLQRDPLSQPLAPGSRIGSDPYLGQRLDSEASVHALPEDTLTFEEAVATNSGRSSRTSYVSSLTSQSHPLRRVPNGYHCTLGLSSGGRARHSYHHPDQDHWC
# T1 sequence (Q02410 whole entry): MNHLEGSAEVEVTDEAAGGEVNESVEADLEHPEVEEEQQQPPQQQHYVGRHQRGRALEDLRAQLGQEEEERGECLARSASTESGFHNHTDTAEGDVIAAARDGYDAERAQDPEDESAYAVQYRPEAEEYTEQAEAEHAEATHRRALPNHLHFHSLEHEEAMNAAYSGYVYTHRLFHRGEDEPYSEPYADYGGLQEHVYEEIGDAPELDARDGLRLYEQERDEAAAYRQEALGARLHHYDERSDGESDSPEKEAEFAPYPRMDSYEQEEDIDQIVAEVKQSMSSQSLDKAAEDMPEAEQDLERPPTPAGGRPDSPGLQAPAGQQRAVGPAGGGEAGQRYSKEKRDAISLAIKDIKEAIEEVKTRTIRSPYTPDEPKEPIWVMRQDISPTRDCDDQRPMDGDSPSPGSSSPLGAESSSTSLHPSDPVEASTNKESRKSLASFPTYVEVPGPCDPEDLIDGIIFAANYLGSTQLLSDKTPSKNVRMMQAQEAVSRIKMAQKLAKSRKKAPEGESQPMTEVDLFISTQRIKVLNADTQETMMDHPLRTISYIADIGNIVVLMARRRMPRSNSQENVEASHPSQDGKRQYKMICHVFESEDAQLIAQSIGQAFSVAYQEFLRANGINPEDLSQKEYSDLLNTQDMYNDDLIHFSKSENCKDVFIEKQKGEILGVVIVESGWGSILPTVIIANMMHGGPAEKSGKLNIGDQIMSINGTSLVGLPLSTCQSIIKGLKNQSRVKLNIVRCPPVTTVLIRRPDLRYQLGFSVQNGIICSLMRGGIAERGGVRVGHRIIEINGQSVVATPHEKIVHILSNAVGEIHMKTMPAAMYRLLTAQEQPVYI
# [2] = target: T1, Voltage-gated N-type calcium channel alpha-1B subunit/Amyloid beta A4 precursor protein-binding family A member 1; assay: disruptors of Mint-PDZ/N-type channel peptide interaction – biochemical, HTRF, SAR follow-up (AID 2489); format: functional
# [3] = target: Potassium voltage-gated channel subfamily KQT member 2 (Rattus norvegicus, UniProt O88943); assay: rat KCNQ2 current potentiators – automated patch clamp, KCNQ2-CHO cells, SAR follow-up (AID 493113); format: functional
# [4] = target: T2, Intestinal-type alkaline phosphatase (Homo sapiens, UniProt P09923); assay: activation of human intestinal alkaline phosphatase – biochemical, luminescent, uHTS hits, set 2, dose response (AID 488817); format: functional;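 further: potency of activators that raise enzyme activity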
# T2 sequence (P09923 whole entry): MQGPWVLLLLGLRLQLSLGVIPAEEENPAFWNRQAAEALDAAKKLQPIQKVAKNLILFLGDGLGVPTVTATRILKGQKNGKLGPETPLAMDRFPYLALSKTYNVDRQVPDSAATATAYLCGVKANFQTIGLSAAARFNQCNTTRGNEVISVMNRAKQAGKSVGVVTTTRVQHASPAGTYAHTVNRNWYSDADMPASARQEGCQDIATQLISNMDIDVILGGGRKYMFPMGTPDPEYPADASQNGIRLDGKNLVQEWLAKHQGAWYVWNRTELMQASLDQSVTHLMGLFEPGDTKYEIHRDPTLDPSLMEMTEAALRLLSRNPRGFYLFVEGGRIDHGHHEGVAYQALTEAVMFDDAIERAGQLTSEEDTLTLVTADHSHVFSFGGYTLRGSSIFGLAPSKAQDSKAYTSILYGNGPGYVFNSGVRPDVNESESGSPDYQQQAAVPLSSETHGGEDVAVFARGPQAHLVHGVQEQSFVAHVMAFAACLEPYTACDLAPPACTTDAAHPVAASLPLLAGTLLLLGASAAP
# [5] = target: T2, Intestinal-type alkaline phosphatase; assay: human intestinal alkaline phosphatase activators, dose response, biochemical, luminescence, uHTS hits (AID 463120); format: functional
# INS1 = assay: INS-1E survival protection against cytokine death – cell-based, luminescence, retest, dose response (AID 449756); format: functional; conditions: Rattus norvegicus;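 further: cell death triggered by IL-1 beta plus TNF-alpha plus IFN-gamma mixture; protective hits raise ATP signal compared with cytokine alone wells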
# [6] = target: T3, Alkaline phosphatase, tissue-nonspecific isozyme (Homo sapiens, UniProt P05186); assay: activation of tissue-nonspecific alkaline phosphatase – biochemical, TNAP isozyme, human IAP uHTS hits, selectivity assay for human IAP activator project, dose response (AID 488886); format: functional;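 further: potency of compounds raising TNAP activity as a selectivity check on IAP activators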
# T3 sequence (P05186 whole entry): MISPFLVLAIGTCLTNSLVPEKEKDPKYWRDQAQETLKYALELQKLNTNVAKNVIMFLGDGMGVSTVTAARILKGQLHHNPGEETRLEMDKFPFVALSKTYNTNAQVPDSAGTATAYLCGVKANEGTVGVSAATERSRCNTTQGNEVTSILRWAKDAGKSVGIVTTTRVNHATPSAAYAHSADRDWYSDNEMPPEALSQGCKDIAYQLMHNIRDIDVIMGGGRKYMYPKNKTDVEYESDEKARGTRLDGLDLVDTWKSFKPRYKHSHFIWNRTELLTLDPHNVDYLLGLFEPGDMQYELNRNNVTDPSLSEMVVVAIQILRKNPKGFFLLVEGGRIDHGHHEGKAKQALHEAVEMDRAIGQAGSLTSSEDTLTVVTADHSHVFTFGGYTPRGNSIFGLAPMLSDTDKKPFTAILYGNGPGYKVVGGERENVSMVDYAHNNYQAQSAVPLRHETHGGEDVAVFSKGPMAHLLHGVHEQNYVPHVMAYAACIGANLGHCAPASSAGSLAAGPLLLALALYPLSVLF
# [7] = target: Intestinal-type alkaline phosphatase (Mus musculus, UniProt P24822); assay: PubChem AID 488875; format: functional
# Cytochrome P450 1A2 = target: T4, Cytochrome P450 1A2 (Homo sapiens, UniProt P05177);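 further: PubChem cytochrome P450 panel assay, CYP1A2 panel member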
# T4 sequence (P05177 whole entry): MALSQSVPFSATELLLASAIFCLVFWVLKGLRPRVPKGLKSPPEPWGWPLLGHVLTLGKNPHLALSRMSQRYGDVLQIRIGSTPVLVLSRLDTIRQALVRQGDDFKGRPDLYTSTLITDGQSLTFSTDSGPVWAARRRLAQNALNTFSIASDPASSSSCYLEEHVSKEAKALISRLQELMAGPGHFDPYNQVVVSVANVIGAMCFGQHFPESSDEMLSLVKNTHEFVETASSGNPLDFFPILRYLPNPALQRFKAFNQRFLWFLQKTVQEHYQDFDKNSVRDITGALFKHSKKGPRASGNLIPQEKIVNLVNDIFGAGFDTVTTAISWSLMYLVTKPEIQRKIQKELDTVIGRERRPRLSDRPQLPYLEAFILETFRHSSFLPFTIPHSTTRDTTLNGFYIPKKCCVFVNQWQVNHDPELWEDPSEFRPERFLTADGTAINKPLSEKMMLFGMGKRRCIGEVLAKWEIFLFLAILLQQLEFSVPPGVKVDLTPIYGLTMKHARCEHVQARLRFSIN
# Chain of SUMO E1/E2 (Q9UBE0 whole entry): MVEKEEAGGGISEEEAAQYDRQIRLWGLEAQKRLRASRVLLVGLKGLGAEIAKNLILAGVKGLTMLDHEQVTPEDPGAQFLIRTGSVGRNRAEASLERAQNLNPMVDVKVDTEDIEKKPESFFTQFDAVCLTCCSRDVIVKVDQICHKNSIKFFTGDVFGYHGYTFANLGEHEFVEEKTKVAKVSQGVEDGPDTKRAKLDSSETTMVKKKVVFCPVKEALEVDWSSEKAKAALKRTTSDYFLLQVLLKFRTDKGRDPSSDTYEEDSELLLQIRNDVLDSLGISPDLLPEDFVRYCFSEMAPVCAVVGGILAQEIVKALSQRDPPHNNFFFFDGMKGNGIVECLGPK
# Chain of SUMO E1/E2 (Q9UBT2 whole entry): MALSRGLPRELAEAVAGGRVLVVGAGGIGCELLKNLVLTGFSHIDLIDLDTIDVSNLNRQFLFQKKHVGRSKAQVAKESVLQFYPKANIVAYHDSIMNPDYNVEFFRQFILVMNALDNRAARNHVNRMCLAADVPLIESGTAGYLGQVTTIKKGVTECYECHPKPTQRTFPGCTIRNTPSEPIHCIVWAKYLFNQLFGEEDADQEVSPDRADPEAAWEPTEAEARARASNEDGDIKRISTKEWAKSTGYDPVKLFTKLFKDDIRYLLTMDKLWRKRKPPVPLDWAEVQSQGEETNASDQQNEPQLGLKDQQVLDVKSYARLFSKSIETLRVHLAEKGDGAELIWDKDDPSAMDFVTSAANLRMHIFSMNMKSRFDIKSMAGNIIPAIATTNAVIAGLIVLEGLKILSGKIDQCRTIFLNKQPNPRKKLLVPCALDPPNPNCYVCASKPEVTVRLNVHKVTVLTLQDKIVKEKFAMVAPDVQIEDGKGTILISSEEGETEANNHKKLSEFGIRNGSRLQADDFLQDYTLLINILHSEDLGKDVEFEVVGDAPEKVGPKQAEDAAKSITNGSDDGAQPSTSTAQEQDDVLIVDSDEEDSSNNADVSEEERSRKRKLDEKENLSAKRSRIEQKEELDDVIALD
# Chain of SUMO E1/E2 (P63279 whole entry): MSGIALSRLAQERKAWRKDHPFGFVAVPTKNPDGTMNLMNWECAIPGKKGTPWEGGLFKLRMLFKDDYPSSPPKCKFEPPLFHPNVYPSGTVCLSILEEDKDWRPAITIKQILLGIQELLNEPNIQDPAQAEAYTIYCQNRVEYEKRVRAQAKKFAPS
smiles,measurement,setting,value
COc1ccc(CNC(=O)COC(=O)c2cc(-c3ccco3)nc3ccccc23)cc1OC,IC50,SUMO E1/E2,6.04 µM (active)
same,IC50,[1],5.49 µM (active)
same,IC50,[2],> 56.8 µM (inactive)
O=C(Nc1ccc2ccccc2c1)C1CC2CCC1C2 (stereo not given),EC50,[3],0.6 µM (active)
Cc1ccc(O)c(/C=N/NC(=O)c2[nH]ncc2Br)c1,EC50,[4],47.6 µM (active)
same,EC50,[5],7.61 µM (active)
same,AC50,INS1,33.5 µM (active)
same,EC50,[6],49.6 µM (active)
same,EC50,[7],> 100 µM (inactive)
C[C@@H]1COc2c(N3CCN(C)CC3)c(F)cc3c(=O)c(C(=O)O)cn1c23 [DEXTROFLOXACINE],AC50,Cytochrome P450 1A2,inactive
